# Where two headings read alike, the source gives them in different places.
# Biological target: T1, phospholipase A2
# T1 construct: gene PLA2G1B; not described in the main text; reagent of the PubChem AID 588400 phospholipase counterscreen (possibly the PLA2 reporter enzyme of an ATG4B assay)
# Test: phospholipase inhibition assay (as PubChem AID […])
# Format: biochemical, Homo sapiens
IC50 (read-out: no significant inhibition at concentrations up to 300 μM),IC50 (read-out: IC50),Compound
> 300 µM,,O=C(O)c1ccccc1Nc1cc(Cl)ccc1C(=O)O [lobenzarit]
,20 µM,Cc1c(Cl)cccc1Nc1ccccc1C(=O)O [tolfenamic acid]
